We go through one compound from paper PMC6292453 (Biochemical Journal, 2018).

In the assay the target is T1, P450ZoGa (CYP236A2, WP_013995999) (Zobellia galactanivorans, UniProt G0L713).
T1 sequence (G0L713 1-387): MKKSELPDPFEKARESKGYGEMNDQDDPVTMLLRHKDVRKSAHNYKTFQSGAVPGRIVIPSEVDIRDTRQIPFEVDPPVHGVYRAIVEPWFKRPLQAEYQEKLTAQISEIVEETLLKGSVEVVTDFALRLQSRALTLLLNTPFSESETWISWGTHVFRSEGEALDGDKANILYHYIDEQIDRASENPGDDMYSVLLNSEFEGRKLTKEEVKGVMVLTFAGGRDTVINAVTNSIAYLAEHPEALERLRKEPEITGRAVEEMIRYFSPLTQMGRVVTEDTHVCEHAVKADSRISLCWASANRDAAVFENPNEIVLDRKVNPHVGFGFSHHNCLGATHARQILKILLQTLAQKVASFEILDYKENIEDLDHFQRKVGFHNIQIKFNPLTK
Put plainly: crystal structure of soaked complex. It counts as binding.

`COC[C@H]1OC(O)[C@H](O)[C@@H](O)[C@H]1O` (stereo partly drawn) [G6Me, 6-O-methyl-D-galactose] returned a dissociation constant (Kd) of 980 ± 120 µM.

One may read the Kd as the free concentration of one partner at which half of the binding sites on the other are occupied at equilibrium, for simple one-to-one binding. The low end stands for tighter binding, the high end for weaker binding.
